Consider 3 compounds from patent US10716769B2 (GUANGZHOU JTREAT BIOSCI. LTD., priority 2015, dated 2020).

The subject of experiment [1] is human cervical cancer cell line (HeLa). The experiment in a line: MTT in vitro tumor cell inhibition. The class given is cell-based. Conditions: 3 days. The source says:
(§1) An effective amount of the above compounds and/or the compositions containing the same used as an active ingredient have an effect on inhibiting the tumor cells. The present invention detects the inhibitory effect of the hydroxy-substituted benzophenone compounds on the proliferation of the in vitro cultured human tumor cells by the methylthiazolyl tetrazolium method.
(§2) The method is used to detect cell viability. […] Particles can be dissolved by dimethyl sulfoxide (DMSO) isopropyl alcohol or 10% acidified SDS (sodium dodecyl sulfate), and a microplate reader is used to measure the OD value at A570 wavelength, which indirectly reflects the number of live cells. The method is used for detection of the cytokines bioactivity, as well as anti-tumor drugs and tumor radiosensitivity and cytotoxicity test, and has the characteristics of being simple, fast, economical, sensitive and accurate and having good reproducibility and no need to use radionuclides. This method has been widely used in screening preclinical anticancer drugs and detecting the drug sensitivity of fresh tumor cells. The method is as below:
(§3) (1) The tumor cell suspension prepared by 0.25% of trypsin digestion and adjusted to a cell concentration of 10^5/ml with RPMI1640 containing 10% fetal calf serum is added to a 96-well plate with 100 μl for each well, cultured 24 hours, and then different dosages of drugs are added with 100 μl/well, for which, the negative control groups, positive control groups and withering wells are set, and 4 parallel wells are set for each group.
(§4) (2) They are continually cultured in incubator containing 5% of CO2 at 37° C. for 24 to 48 hours. MTT solution (5 g/L) is added to each well before the termination of the experiment. The OD value at A570 nm is detected by microplate reader. The OD value at A570 of the negative group without the addition of drugs is taken as a control. The cell survival rate and cell inhibition rate of drugs are calculated according to the following formula: Cell survival rate=(OD value of test group/OD value of control group)×100% Cell inhibition rate (%)=(OD value of the control group−OD value of the test group/(OD value of the control group−OD value of the blank group)
(§5) 1. Tumor cell lines: human glioma cell line (U251), human colon cancer cell line (LOVO), human hepatoma cell line (HepG2), human lung cancer cell line (PC84045), human endometrial carcinoma cell line (JEC), human renal carcinoma (GRC), human gastric cancer cell line (MCG804), human cervical cancer cell line (HeLa), human hepatocellular carcinoma cell line (BEL-7402) and human umbilical vein endothelial cell line (ECV304) purchased from Animal Experimental Center of Zhongshan Medical College, and preserved by the present laboratory.
(§6) The tumor cell lines are cultured in RPMI-1640 medium containing 15% of the newborn bovine serum in a conventional manner, placed in the humidification incubator containing 5% of CO2 for being cultured at 37° C., and are observed for growth by an inverted microscope. A subculture is conducted every about 3-5 days, the cells in logarithmic growth phase are adopted to be digested with 0.25% of trypsin, and the serum-free RPMI-1640 medium is used for culturing the cell suspension; the blood counting plate makes counting, the trypan blue exclusion tests the cell activity, and the cell viability>95% is used for formal tests.
(§7) Liquid preparation: the compounds are labeled with the codes respectively, DMSO is used to dissolve each compound, the bacterial filter is used to remove bacteria, and each compound is prepared into 10^−4 g/ml, 10^−5 g/ml, 10^−6 g/ml and preserved at 4° C. for use. […]

In experiment [2] the test system is human gastric cancer cell line (MCG804). The experiment in a line: MTT in vitro tumor cell inhibition. The class given is cell-based. Particulars: 3 days.
From the text: as §1, §2, §3, §4, §5, §6, §7

In experiment [3] the test system is human colon cancer cell line (LOVO). The experiment in a line: MTT in vitro tumor cell inhibition. Conditions: 3 days; for Inhibitory rate %: 10^−4 g/ml. Type of experiment: cell-based.
From the text: as §1, §2, §3, §4, §5, §6, §7

Experiment [4] concerns human endometrial carcinoma cell line (JEC). The experiment in a line: MTT in vitro tumor cell inhibition. The class given is cell-based. Particulars: 3 days.
From the text: as §1, §2, §3, §4, §5, §6, §7

Experiment [5] has as its system human hepatoma cell line (HepG2). Kind of experiment: MTT in vitro tumor cell inhibition. Type of experiment: cell-based. Particulars: 3 days.
From the text: as §1, §2, §3, §4, §5, §6, §7

The subject of experiment [6] is human glioma cell line (U251). The experiment in a line: MTT in vitro tumor cell inhibition. The class given is cell-based. Conditions: 3 days.
From the text: as §1, §2, §3, §4, §5, §6, §7

For experiment [7], the system named is human lung cancer cell line (PC84045). The experiment in a line: MTT in vitro tumor cell inhibition. Type of experiment: cell-based. Conditions: 3 days.
From the text: as §1, §2, §3, §4, §5, §6, §7

Experiment [8] relates to human umbilical vein endothelial cell line (ECV304). The experiment in a line: MTT in vitro cell inhibition. Conditions: 3 days. Type of experiment: cell-based.
From the text: as §1, §2, §3, §4, §5, §6, §7

Another experiment relates to MCF7. The experiment in a line: MTT in vitro tumor cell inhibition. Type of experiment: cell-based. Conditions: 3 days.
From the text: as §1, §2, §3, §4, §6
Liquid preparation: the compounds are labeled with the codes respectively, DMSO is used to dissolve each compound, the bacterial filter is used to remove bacteria, and each compound is prepared into 10^−4 g/ml, 10^−5 g/ml, 10^−6 g/ml and preserved at 4° C. for use.
MTT method: a bottle of 4-5 days old cells in the exponential growth phase are adopted to be cultured, and added with an appropriate amount of Trypsin-EDTA solution, so as to enable the adherent cells to fall off, and are prepared with 10 ml of RPMI-1640 medium containing 15% newborn bovine serum into suspensions; after stained with trypan blue, the cell number is counted on the blood counting plate to ensure that the live cells is more than 97%; the cell suspensions are diluted by the complete medium so that each […] of solution contains 5000-400000 cells; the 96-well plate is used with 200 μl of cell suspensions added into each. The 96-well plate is placed at 37° C. in 5% of CO2 containing incubator for 24 hours; the test compounds are diluted at 3 dilutions with 5 wells in parallel for each concentration; the serum-free RPMI1640 is used as the control group. […]

In another experiment the test system is HPV 6/11 Virus. The experiment in a line: HPV detection via fluorescence quantitative PCR in genital warts tissue homogenate. Also on record: species or system human papillomavirus. Conditions: genital warts tissue homogenate, 37° C., 24 hours, FQ-PCR. The source says: (§8) The aforesaid compounds and/or compositions containing the same are effective in killing and inhibiting HPV type 6/11 and type 16/18, which can be used for the preparation of drugs for preventing and treating viral infection of HPV, preventing and treating genital warts, flat warts, common warts, vaginitis, cervicitis and cervical erosion, cervical cancer, esophageal cancer and other cancers caused by HPV. The present invention observes the effect of active ingredients and products by the detection of the change in the amount of the HPV virus through the real-time quantitative PCR. Such method has been applied in several publications (Youling C A I, et al., Chinese STD/AIDS, 2002, 8: 2,108; Yuansheng W U, Ruijiang F A N, et al., Practical Application of Integrated Chinese and Western Medicine in Clinics, 2003, 3: 2,1).
(§9) The microemulsion obtained in example 1 is used as a test sample and saline for blank control.
(§10) The standard clinical genital warts specimens from a variety of patients after being cut off are washed with saline for removing bloods, and are cut into pieces under aseptic conditions, added with saline in 3 times of their volumes to be uniformly mixed, grinded into homogenate and placed at −40° C. for use.
(§11) Each test sample drug microemulsion and the saline of 50 μl for each are respectively added with 50 μl the genital warts tissue homogenate, and incubated at 37° C. for 24 hours; tests are performed according to the operation procedure provided by the HPV6, 11 and 16, 18 type FQ-PCR diagnostic kits provided by Da'an Gene Diagnostic Center. 0.2 ml of DNA extracted by the conventional alkaline lysis method is put into the thin-walled reaction tube, and simultaneously added with primers, F-PROBE, DNTP, DNA polymerase, buffers and the like in a certain concentration; ABI PRISM™ 7700 fluorescence quantitative PCR amplifier is used to repeat 40 circulations each with 45 s at 93° C. and 120 s at 55° C. after predegeneration at 93° C. for 2 mins; the quantitative results are automatically analyzed by the computer software to calculate the quantitative results of the initial copy number. The data are shown in Table 2 (completed by Da'an Gene Clinical Test Center).

A further experiment deals with HPV16/18. The description is as above. Also on record: species or system human papillomavirus. Particulars: genital warts tissue homogenate, 37° C., 24 hours, FQ-PCR.
From the text: as §8, §9, §10, §11

The structures appear in SMILES notation.

Turning to `O=C(c1ccc(O)c(O)c1)c1cc(O)c(O)c(O)c1O` [2,3,3′,4,4′,5-hexahydroxybenzophenone], the Inhibitory rate % turned out to be 58.94% in experiment [1] (10^−4 g/ml); 71.91% in experiment [2] (MCG804, 10^−4 g/ml); 75.61% in experiment [3]; 79.84% in experiment [4] (10^−4 g/ml); 32.36% in experiment [4] (10^−5 g/ml); 77.03% in experiment [5] (HepG2, 10^−4 g/ml). Also, the Inhibitory rate % in experiment [5] (HepG2, 10^−5 g/ml) is listed as 55.49%; in [6] (U251, 10^−4 g/ml), 64.27%; in experiment [7] (PC84045, 10^−4 g/ml), 80.43%; in experiment [7] (PC84045, 10^−5 g/ml) it was 70.86%; in experiment [7] (PC84045, 10^−6 g/ml), 41.369%; in experiment [8] (ECV304, 10^−4 g/ml), 70.81%. Besides, the Inhibitory rate % worked out at 43.47% in experiment [8] (ECV304, 10^−5 g/ml) and 65.36% in the experiment with MCF7 (MCF7, 10^−4 g/ml). Also, the “Inhibitory rate, sensitivity class” value in experiment [1] (10^−5 g/ml) is “insensitive (<30% means insensitive)”; in experiment [1] (10^−6 g/ml) it was “insensitive (<30% means insensitive)”; in [2] (MCG804, 10^−5 g/ml), “insensitive (<30% means insensitive)”; in [2] (MCG804, 10^−6 g/ml), “insensitive (<30% means insensitive)”; in experiment [3] (10^−5 g/ml), “insensitive (<30% means insensitive)”; in experiment [3] (10^−6 g/ml) it was “insensitive (<30% means insensitive)”. The “Inhibitory rate, sensitivity class” value in [4] (10^−6 g/ml) is on record as “insensitive (<30% means insensitive)”; in experiment [5] (HepG2, 10^−6 g/ml) it was “insensitive (<30% means insensitive)”; in [6] (U251, 10^−5 g/ml), “insensitive (<30% means insensitive)”; in experiment [6] (U251, 10^−6 g/ml), “insensitive (<30% means insensitive)”; in [8] (ECV304, 10^−6 g/ml), “insensitive (<30% means insensitive)”; with MCF7 (MCF7, 10^−5 g/ml), “insensitive (<30% means insensitive)”. Further, the “Inhibitory rate, sensitivity class” value in the experiment with MCF7 (MCF7, 10^−6 g/ml) is “insensitive (<30% means insensitive)”.
Take `O=C(c1ccccc1)c1ccc(O)cc1O` [2,4-dihydroxybenzophenone]: the Inhibitory rate % in experiment [1] (10^−4 g/ml) stood at 95.65%; in experiment [1] (10^−5 g/ml), 48.96%; in experiment [1] (10^−6 g/ml), 37.32%; in experiment [2] (MCG804, 10^−4 g/ml), 92.54%; in experiment [2] (MCG804, 10^−5 g/ml) it was 86.35%; in [2] (MCG804, 10^−6 g/ml) it was 41.35%. In addition, the Inhibitory rate % in experiment [3] came to 93.80%; in [4] (10^−4 g/ml), 93.58%; in experiment [4] (10^−5 g/ml), 62.30%; in experiment [4] (10^−6 g/ml) it was 32.56%; in [5] (HepG2, 10^−4 g/ml) it was 94.78%; in [5] (HepG2, 10^−5 g/ml) it was 66.74%. Besides, the Inhibitory rate % is given as 58.63% in [5] (HepG2, 10^−6 g/ml); 85.31% in experiment [6] (U251, 10^−4 g/ml); 67.25% in experiment [6] (U251, 10^−5 g/ml); 31.21% in experiment [6] (U251, 10^−6 g/ml); 92.65% in experiment [7] (PC84045, 10^−4 g/ml); 89.88% in experiment [7] (PC84045, 10^−5 g/ml). The Inhibitory rate % is recorded as 44.39% in [7] (PC84045, 10^−6 g/ml); 96.17% in experiment [8] (ECV304, 10^−4 g/ml); 73.12% in experiment [8] (ECV304, 10^−5 g/ml); 45.37% in [8] (ECV304, 10^−6 g/ml); 87.60% with MCF7 (MCF7, 10^−4 g/ml); 68.62% in the experiment on MCF7 (MCF7, 10^−5 g/ml). The Inhibitory rate % with MCF7 (MCF7, 10^−6 g/ml) is 28.57%. The “Inhibitory rate, sensitivity class” value in experiment [3] (10^−5 g/ml) and in experiment [3] (10^−6 g/ml) was “insensitive (<30% means insensitive)” each time.
Consider `CCCOC(=O)c1cc(O)c(O)c(O)c1` [Propyl gallate, propyl 3,4,5-trihydroxybenzoate, reference compound], for which the “HPV 6/11 Virus” value in the experiment with HPV 6/11 Virus worked out at 0 copy/ml. This compound registered an HPV16/18 in the experiment on HPV16/18 of 0 copy/ml.
